Assays:
[1] = system: TK-10; test: cells; details: Homo sapiens
Description: Anticancer activity against human TK10 cells

[2] = system: SNB-75; test: cells; details: Homo sapiens
Description: Anticancer activity against human SNB75 cells

[3] = system: U-251; test: cells; details: Homo sapiens
Description: Anticancer activity against human U251 cells

[4] = system: NCI-H226; test: cells; details: Homo sapiens
Description: Anticancer activity against human NCI-H226 cells

[5] = system: MDA-MB-468; test: cells; details: Homo sapiens
Description: Anticancer activity against human MDA-MB-468 cells

[6] = system: CCRF-CEM; test: cells; details: Homo sapiens
Description: Anticancer activity against human CCRF-CEM cells

[7] = system: HCT-116; test: cells; details: Homo sapiens
Description: Anticancer activity against human HCT116 cells

[8] = system: SK-OV-3; test: cells; details: Homo sapiens
Description: Anticancer activity against human SKOV3 cells

[9] = system: A549; test: cells; details: Homo sapiens
Description: Anticancer activity against human A549 cells

[10] = system: MOLT-4; test: cells; details: Homo sapiens
Description: Anticancer activity against human MOLT4 cells

[11] = cells; details: Homo sapiens, Hs-578T
Description: Anticancer activity against human Hs 578T cells

[12] = system: ACHN; test: cells; details: Homo sapiens
Description: Anticancer activity against human ACHN cells

[13] = system: SF-268; test: cells; details: Homo sapiens
Description: Anticancer activity against human SF268 cells

[14] = system: SF-295; test: cells; details: Homo sapiens
Description: Anticancer activity against human SF295 cells

[15] = system: HOP-92; test: cells; details: Homo sapiens
Description: Anticancer activity against human HOP92 cells

[16] = system: Vero; test: cells; details: Chlorocebus sabaeus, 48 h
Description: Cytotoxicity against african green monkey Vero cells after 48 hrs by MTT assay

[17] = system: SK-MEL-28; test: cells; details: Homo sapiens
Description: Anticancer activity against human SK-MEL-28 cells

[18] = system: RXF 393; test: cells; details: Homo sapiens
Description: Anticancer activity against human RXF393 cells

[19] = system: HL-60(TB); test: cells; details: Homo sapiens
Description: Anticancer activity against human HL-60(TB) cells

[20] = system: NCI/ADR-RES; test: cells; details: Homo sapiens
Description: Anticancer activity against human NCI/ADR-RES cells

[21] = system: CAKI-1; test: cells; details: Homo sapiens
Description: Anticancer activity against human Caki1 cells

[22] = system: UACC-257; test: cells; details: Homo sapiens
Description: Anticancer activity against human UACC257 cells

[23] = system: HT-29; test: cells; details: Homo sapiens
Description: Anticancer activity against human HT-29 cells

[24] = system: MDA-MB-231; test: cells; details: Homo sapiens
Description: Anticancer activity against human MDA-MB-231 cells

[25] = system: UACC-62; test: cells; details: Homo sapiens
Description: Anticancer activity against human UACC62 cells

[26] = in vivo; details: mouse, cancer cell lines
Description: Toxicity in cancer cells containing hollow fiber implanted mouse

[27] = system: HCT-15; test: cells; details: Homo sapiens
Description: Anticancer activity against human HCT15 cells

[28] = system: HCC 2998; test: cells; details: Homo sapiens
Description: Anticancer activity against human HCC2998 cells

[29] = system: OVCAR-5; test: cells; details: Homo sapiens
Description: Anticancer activity against human OVCAR5 cells

[30] = system: 786-0; test: cells; details: Homo sapiens
Description: Anticancer activity against human 786-0 cells

[31] = system: BT-549; test: cells; details: Homo sapiens
Description: Anticancer activity against human BT549 cells

[32] = system: SNB-19; test: cells; details: Homo sapiens
Description: Anticancer activity against human SNB19 cells

## CCN(CC)CCCCNc1c2ccccc2[n+](C)c2c1[nH]c1ccccc12.[Cl-]
[1]; TK-10, read-out: pGI50 (converted)
  GI50: 2140 nM
[1]; TK-10, read-out: pLC50 (converted)
  CC50: > 100000 nM
[1]; TK-10, read-out: pTGI
  TGI: 8910 nM
[2]; SNB-75, read-out: pGI50 (converted)
  GI50: 347 nM
[2]; SNB-75, read-out: pLC50 (converted)
  CC50: 3800 nM
[2]; SNB-75, read-out: pTGI
  TGI: 1290 nM
[3]; U-251, read-out: pGI50 (converted)
  GI50: 229 nM
[3]; U-251, read-out: pLC50 (converted)
  CC50: 24500 nM
[3]; U-251, read-out: pTGI
  TGI: 1350 nM
[4]; NCI-H226, read-out: pGI50 (converted)
  GI50: 166 nM
[4]; NCI-H226, read-out: pLC50 (converted)
  CC50: > 100000 nM
[4]; NCI-H226, read-out: pTGI
  TGI: 676 nM
[5]; MDA-MB-468, read-out: pGI50 (converted)
  GI50: 204 nM
[5]; MDA-MB-468, read-out: pLC50 (converted)
  CC50: 2140 nM
[5]; MDA-MB-468, read-out: pTGI
  TGI: 550 nM
[6]; read-out: pGI50 (converted)
  GI50: 427 nM
[6]; read-out: pLC50 (converted)
  CC50: > 100000 nM
[6]; read-out: pTGI
  TGI: 2570 nM
[7]; HCT-116, read-out: pGI50 (converted)
  GI50: 331 nM
[7]; HCT-116, read-out: pLC50 (converted)
  CC50: > 100000 nM
[7]; HCT-116, read-out: pTGI
  TGI: 3800 nM
[8]; SK-OV-3, read-out: pGI50 (converted)
  GI50: 251 nM
[8]; SK-OV-3, read-out: pLC50 (converted)
  CC50: 100000 nM
[8]; SK-OV-3, read-out: pTGI
  TGI: 1820 nM
[9]; A549, read-out: pGI50 (converted)
  GI50: 52.5 nM
[9]; A549, read-out: pLC50 (converted)
  CC50: > 100000 nM
[9]; A549, read-out: pTGI
  TGI: 15500 nM
[10]; MOLT-4, read-out: pGI50 (converted)
  GI50: 339 nM
[10]; MOLT-4, read-out: pLC50 (converted)
  CC50: > 100000 nM
[10]; MOLT-4, read-out: pTGI
  TGI: 42700 nM
[11]; read-out: pGI50 (converted)
  GI50: 269 nM
[11]; read-out: pLC50 (converted)
  CC50: 93300 nM
[11]; read-out: pTGI
  TGI: 955 nM
[12]; read-out: pGI50 (converted)
  GI50: 2950 nM
[12]; read-out: pLC50 (converted)
  CC50: > 100000 nM
[12]; read-out: pTGI
  TGI: 22400 nM
[13]; SF-268, read-out: pGI50 (converted)
  GI50: 224 nM
[13]; SF-268, read-out: pLC50 (converted)
  CC50: 33100 nM
[13]; SF-268, read-out: pTGI
  TGI: 1580 nM
[14]; SF-295, read-out: pGI50 (converted)
  GI50: 603 nM
[14]; SF-295, read-out: pLC50 (converted)
  CC50: > 100000 nM
[14]; SF-295, read-out: pTGI
  TGI: 5010 nM
[15]; HOP-92, read-out: pGI50 (converted)
  GI50: 263 nM
[15]; HOP-92, read-out: pLC50 (converted)
  CC50: > 100000 nM
[15]; HOP-92, read-out: pTGI
  TGI: 955 nM
[16]
  IC50: 62000 nM
[17]; SK-MEL-28, read-out: pGI50 (converted)
  GI50: 186 nM
[17]; SK-MEL-28, read-out: pLC50 (converted)
  CC50: 1740 nM
[17]; SK-MEL-28, read-out: pTGI
  TGI: 490 nM
[18]; RXF 393, read-out: pGI50 (converted)
  GI50: 389 nM
[18]; RXF 393, read-out: pLC50 (converted)
  CC50: 8130 nM
[18]; RXF 393, read-out: pTGI
  TGI: 1510 nM
[19]; HL-60, read-out: pGI50 (converted)
  GI50: 20400 nM
[19]; HL-60, read-out: pLC50 (converted)
  CC50: > 100000 nM
[19]; HL-60, read-out: pTGI
  TGI: > 100000 nM
[20]; read-out: pGI50 (converted)
  GI50: 69200 nM
[20]; read-out: pLC50 (converted)
  CC50: > 100000 nM
[20]; read-out: pTGI
  TGI: > 100000 nM
[21]; CAKI-1, read-out: pGI50 (converted)
  GI50: 6920 nM
[21]; CAKI-1, read-out: pLC50 (converted)
  CC50: 100000 nM
[21]; CAKI-1, read-out: pTGI
  TGI: 32400 nM
[22]; UACC-257, read-out: pGI50 (converted)
  GI50: 1550 nM
[22]; UACC-257, read-out: pLC50 (converted)
  CC50: > 100000 nM
[22]; UACC-257, read-out: pTGI
  TGI: 5750 nM
[23]; HT-29, read-out: pGI50 (converted)
  GI50: 251 nM
[23]; HT-29, read-out: pLC50 (converted)
  CC50: > 100000 nM
[23]; HT-29, read-out: pTGI
  TGI: 1910 nM
[24]; MDA-MB-231, read-out: pGI50 (converted)
  GI50: > 100000 nM
[24]; MDA-MB-231, read-out: pLC50 (converted)
  CC50: 100000 nM
[24]; MDA-MB-231, read-out: pTGI
  TGI: > 100000 nM
[25]; UACC-62, read-out: pGI50 (converted)
  GI50: 83.2 nM
[25]; UACC-62, read-out: pLC50 (converted)
  CC50: 589 nM
[25]; UACC-62, read-out: pTGI
  TGI: 234 nM
[26]
  MTD: 50 mg/kg
[27]; HCT-15, read-out: pGI50 (converted)
  GI50: 11500 nM
[27]; HCT-15, read-out: pLC50 (converted)
  CC50: > 100000 nM
[27]; HCT-15, read-out: pTGI
  TGI: 49000 nM
[28]; HCC 2998, read-out: pGI50 (converted)
  GI50: 269 nM
[28]; HCC 2998, read-out: pLC50 (converted)
  CC50: 3630 nM
[28]; HCC 2998, read-out: pTGI
  TGI: 759 nM
[29]; OVCAR-5, read-out: pGI50 (converted)
  GI50: 851 nM
[29]; OVCAR-5, read-out: pLC50 (converted)
  CC50: > 100000 nM
[29]; OVCAR-5, read-out: pTGI
  TGI: 4170 nM
[30]; 786-0, read-out: pGI50 (converted)
  GI50: 1910 nM
[30]; 786-0, read-out: pLC50 (converted)
  CC50: 97700 nM
[30]; 786-0, read-out: pTGI
  TGI: 6760 nM
[31]; BT-549, read-out: pGI50 (converted)
  GI50: 1380 nM
[31]; BT-549, read-out: pLC50 (converted)
  CC50: 7940 nM
[31]; BT-549, read-out: pTGI
  TGI: 3310 nM
[32]; SNB-19, read-out: pGI50 (converted)
  GI50: 224 nM
[32]; SNB-19, read-out: pLC50 (converted)
  CC50: 89100 nM
[32]; SNB-19, read-out: pTGI
  TGI: 871 nM
